From US20250275540A1, “USE OF PROTOPORPHYRINOGEN OXIDASE” (BEIJING DABEINONG BIOTECHNOLOGY CO., LTD., priority 2022, published 2025)

Tested on: transgenic soybean plants
Assay: Detection of the herbicide tolerance of the transgenic soybean plants
Format: in vivo
Details: for The grade of pesticide damage/plant: 0 / The grade of pesticide damage/plant: 1 / The grade of pesticide damage/plant: 2 / The grade of pesticide damage/plant: 3: 7 DAT
[1] = genotype Control vector, 120 g ai/ha
[2] = genotype Control vector, 240 g ai/ha
[3] = genotype PPO-AP-01, 120 g ai/ha
[4] = genotype PPO-AP-01, 240 g ai/ha
[5] = genotype PPO-EC-01, 120 g ai/ha
[6] = genotype PPO-EC-01, 240 g ai/ha

C#CCN1C(=O)COc2cc(F)c(N3C(=O)C4=C(CCCC4)C3=O)cc21 [flumioxazin, 2-[7-fluoro-3,4-dihydro-3-oxo-4-(2-propynyl)-2H-1,4-benzoxazin-6-yl]-4,5,6,7-tetrahydro-1H-isoindole-1,3(2H)-dione]
The grade of pesticide damage/plant: 0 (genotype CK, 120 g ai/ha): 0 plant | The grade of pesticide damage/plant: 1 (genotype CK, 120 g ai/ha): 0 plant | The grade of pesticide damage/plant: 2 (genotype CK, 120 g ai/ha): 0 plant | The grade of pesticide damage/plant: 3 (genotype CK, 120 g ai/ha): 16 plant | The grade of pesticide damage/plant: 0 (genotype CK, 240 g ai/ha): 0 plant | The grade of pesticide damage/plant: 1 (genotype CK, 240 g ai/ha): 0 plant | The grade of pesticide damage/plant: 2 (genotype CK, 240 g ai/ha): 0 plant | The grade of pesticide damage/plant: 3 (genotype CK, 240 g ai/ha): 16 plant | The grade of pesticide damage/plant: 0 [1]: 0 plant | The grade of pesticide damage/plant: 1 [1]: 0 plant | The grade of pesticide damage/plant: 2 [1]: 0 plant | The grade of pesticide damage/plant: 3 [1]: 16 plant | The grade of pesticide damage/plant: 0 [2]: 0 plant | The grade of pesticide damage/plant: 1 [2]: 0 plant | The grade of pesticide damage/plant: 2 [2]: 0 plant | The grade of pesticide damage/plant: 3 [2]: 16 plant | The grade of pesticide damage/plant: 0 [3]: 0 plant | The grade of pesticide damage/plant: 1 [3]: 0 plant | The grade of pesticide damage/plant: 2 [3]: 0 plant | The grade of pesticide damage/plant: 3 [3]: 16 plant | The grade of pesticide damage/plant: 0 [4]: 0 plant | The grade of pesticide damage/plant: 1 [4]: 0 plant | The grade of pesticide damage/plant: 2 [4]: 0 plant | The grade of pesticide damage/plant: 3 [4]: 16 plant | tolerance to the herbicide (in words) (genotype PPO-AP-01, at different concentrations): no flumioxazin tolerance | The grade of pesticide damage/plant: 0 [5]: 16 plant | The grade of pesticide damage/plant: 1 [5]: 0 plant | The grade of pesticide damage/plant: 2 [5]: 0 plant | The grade of pesticide damage/plant: 3 [5]: 0 plant | The grade of pesticide damage/plant: 0 [6]: 15 plant | The grade of pesticide damage/plant: 1 [6]: 1 plant | The grade of pesticide damage/plant: 2 [6]: 0 plant | The grade of pesticide damage/plant: 3 [6]: 0 plant | The grade of pesticide damage/plant: 0 (genotype PPOA-01, 120 g ai/ha): 16 plant | The grade of pesticide damage/plant: 1 (genotype PPOA-01, 120 g ai/ha): 0 plant | The grade of pesticide damage/plant: 2 (genotype PPOA-01, 120 g ai/ha): 0 plant | The grade of pesticide damage/plant: 3 (genotype PPOA-01, 120 g ai/ha): 0 plant | The grade of pesticide damage/plant: 0 (genotype PPOA-01, 240 g ai/ha): 14 plant | The grade of pesticide damage/plant: 1 (genotype PPOA-01, 240 g ai/ha): 2 plant | The grade of pesticide damage/plant: 2 (genotype PPOA-01, 240 g ai/ha): 0 plant | The grade of pesticide damage/plant: 3 (genotype PPOA-01, 240 g ai/ha): 0 plant | The grade of pesticide damage/plant: 0 (genotype PPOB-01, 120 g ai/ha): 16 plant | The grade of pesticide damage/plant: 1 (genotype PPOB-01, 120 g ai/ha): 0 plant | The grade of pesticide damage/plant: 2 (genotype PPOB-01, 120 g ai/ha): 0 plant | The grade of pesticide damage/plant: 3 (genotype PPOB-01, 120 g ai/ha): 0 plant | The grade of pesticide damage/plant: 0 (genotype PPOB-01, 240 g ai/ha): 15 plant | The grade of pesticide damage/plant: 1 (genotype PPOB-01, 240 g ai/ha): 1 plant | The grade of pesticide damage/plant: 2 (genotype PPOB-01, 240 g ai/ha): 0 plant | The grade of pesticide damage/plant: 3 (genotype PPOB-01, 240 g ai/ha): 0 plant | The grade of pesticide damage/plant: 0 (genotype PPOC-01, 120 g ai/ha): 16 plant | The grade of pesticide damage/plant: 1 (genotype PPOC-01, 120 g ai/ha): 0 plant | The grade of pesticide damage/plant: 2 (genotype PPOC-01, 120 g ai/ha): 0 plant | The grade of pesticide damage/plant: 3 (genotype PPOC-01, 120 g ai/ha): 0 plant | The grade of pesticide damage/plant: 0 (genotype PPOC-01, 240 g ai/ha): 16 plant | The grade of pesticide damage/plant: 1 (genotype PPOC-01, 240 g ai/ha): 0 plant | The grade of pesticide damage/plant: 2 (genotype PPOC-01, 240 g ai/ha): 0 plant | The grade of pesticide damage/plant: 3 (genotype PPOC-01, 240 g ai/ha): 0 plant | The grade of pesticide damage/plant: 0 (genotype PPOD-01, 120 g ai/ha): 16 plant | The grade of pesticide damage/plant: 1 (genotype PPOD-01, 120 g ai/ha): 0 plant | The grade of pesticide damage/plant: 2 (genotype PPOD-01, 120 g ai/ha): 0 plant | The grade of pesticide damage/plant: 3 (genotype PPOD-01, 120 g ai/ha): 0 plant | The grade of pesticide damage/plant: 0 (genotype PPOD-01, 240 g ai/ha): 16 plant | The grade of pesticide damage/plant: 1 (genotype PPOD-01, 240 g ai/ha): 0 plant | The grade of pesticide damage/plant: 2 (genotype PPOD-01, 240 g ai/ha): 0 plant | The grade of pesticide damage/plant: 3 (genotype PPOD-01, 240 g ai/ha): 0 plant | The grade of pesticide damage/plant: 0 (genotype PPOE-01, 120 g ai/ha): 16 plant | The grade of pesticide damage/plant: 1 (genotype PPOE-01, 120 g ai/ha): 0 plant | The grade of pesticide damage/plant: 2 (genotype PPOE-01, 120 g ai/ha): 0 plant | The grade of pesticide damage/plant: 3 (genotype PPOE-01, 120 g ai/ha): 0 plant | The grade of pesticide damage/plant: 0 (genotype PPOE-01, 240 g ai/ha): 15 plant | The grade of pesticide damage/plant: 1 (genotype PPOE-01, 240 g ai/ha): 1 plant | The grade of pesticide damage/plant: 2 (genotype PPOE-01, 240 g ai/ha): 0 plant | The grade of pesticide damage/plant: 3 (genotype PPOE-01, 240 g ai/ha): 0 plant | The grade of pesticide damage/plant: 0 (genotype PPOF-01, 120 g ai/ha): 16 plant | The grade of pesticide damage/plant: 1 (genotype PPOF-01, 120 g ai/ha): 0 plant | The grade of pesticide damage/plant: 2 (genotype PPOF-01, 120 g ai/ha): 0 plant | The grade of pesticide damage/plant: 3 (genotype PPOF-01, 120 g ai/ha): 0 plant | The grade of pesticide damage/plant: 0 (genotype PPOF-01, 240 g ai/ha): 14 plant | The grade of pesticide damage/plant: 1 (genotype PPOF-01, 240 g ai/ha): 2 plant | The grade of pesticide damage/plant: 2 (genotype PPOF-01, 240 g ai/ha): 0 plant | The grade of pesticide damage/plant: 3 (genotype PPOF-01, 240 g ai/ha): 0 plant | tolerance to the herbicide (in words) (genotypes PPOA-01 to PPOF-01 and PPO-EC-01, at different concentrations): high-resistant tolerance
